O=C1Cc2ccccc2N1
Details | solubility (mole fraction)
in 1,4-dioxane, 287.15 K | 0.276
in 1,4-dioxane, 292.15 K | 0.309
in 1,4-dioxane, 296.15 K | 0.336
in 1,4-dioxane, 300.15 K | 0.363
in 1,4-dioxane, 304.15 K | 0.394
in 1,4-dioxane, 308.65 K | 0.421
in 1,4-dioxane, 311.65 K | 0.448
in 1,4-dioxane, 315.35 K | 0.475
in 1,4-dioxane, 319.05 K | 0.502
in 1,4-dioxane, 323.15 K | 0.529
in 1,4-dioxane, 328.15 K | 0.567
in THF, 293.85 K | 0.0116
in THF, 298.65 K | 0.0133
in THF, 302.95 K | 0.0155
in THF, 307.25 K | 0.0181
in THF, 312.55 K | 0.021
in THF, 317.05 K | 0.0243
in THF, 321.35 K | 0.0276
in THF, 327.35 K | 0.0327
in THF, 333.95 K | 0.0397
in acetone, 288.15 K | 0.0498
in acetone, 294.05 K | 0.0602
in acetone, 299.35 K | 0.0707
in acetone, 304.55 K | 0.0812
in acetone, 309.65 K | 0.0919
in acetone, 314.45 K | 0.102
in acetone, 319.55 K | 0.112
in acetone, 325.55 K | 0.122
in acetone, 328.25 K | 0.127
in acetonitrile, 287.15 K | 0.0508
in acetonitrile, 292.15 K | 0.0628
in acetonitrile, 296.15 K | 0.0748
in acetonitrile, 300.15 K | 0.0869
in acetonitrile, 304.15 K | 0.101
in acetonitrile, 308.65 K | 0.123
in acetonitrile, 311.65 K | 0.146
in acetonitrile, 315.35 K | 0.171
in acetonitrile, 319.05 K | 0.196
in acetonitrile, 323.15 K | 0.227
in acetonitrile, 328.15 K | 0.285
in dichloromethane, 288.15 K | 0.0353
in dichloromethane, 292.15 K | 0.0383
in dichloromethane, 296.15 K | 0.0419
in dichloromethane, 300.15 K | 0.0452
in dichloromethane, 304.15 K | 0.0485
in dichloromethane, 308.65 K | 0.0519
in dichloromethane, 311.65 K | 0.0552
in ethanol, 291.95 K | 0.00842
in ethanol, 297.95 K | 0.0134
in ethanol, 302.95 K | 0.0186
in ethanol, 307.65 K | 0.0253
in ethanol, 312.55 K | 0.0324
in ethanol, 318.05 K | 0.0458
in ethanol, 322.65 K | 0.0568
in ethanol, 327.95 K | 0.0742
in ethanol, 332.65 K | 0.0952
in ethyl acetate, 287.15 K | 0.141
in ethyl acetate, 292.15 K | 0.156
in ethyl acetate, 296.15 K | 0.169
in ethyl acetate, 300.15 K | 0.184
in ethyl acetate, 304.15 K | 0.198
in ethyl acetate, 308.65 K | 0.215
in ethyl acetate, 311.65 K | 0.233
in ethyl acetate, 315.35 K | 0.247
in ethyl acetate, 319.05 K | 0.27
in ethyl acetate, 323.15 K | 0.287
in ethyl acetate, 328.15 K | 0.32
in isopropanol, 291.95 K | 0.00673
in isopropanol, 297.95 K | 0.00919
in isopropanol, 303.05 K | 0.0122
in isopropanol, 308.35 K | 0.0155
in isopropanol, 313.15 K | 0.0192
in isopropanol, 317.45 K | 0.0232
in isopropanol, 322.15 K | 0.0287
in isopropanol, 328.35 K | 0.0355
in isopropanol, 333.35 K | 0.0443
in methanol, 291.95 K | 0.00441
in methanol, 297.95 K | 0.00563
in methanol, 302.95 K | 0.00688
in methanol, 307.65 K | 0.00821
in methanol, 312.55 K | 0.00977
in methanol, 317.45 K | 0.0119
in methanol, 322.15 K | 0.0137
in methanol, 327.35 K | 0.0163
in methanol, 332.35 K | 0.019
in n-butanol, 293.85 K | 0.00297
in n-butanol, 298.65 K | 0.00379
in n-butanol, 302.95 K | 0.00468
in n-butanol, 307.25 K | 0.00546
in n-butanol, 312.55 K | 0.00674
in n-butanol, 317.05 K | 0.00793
in n-butanol, 321.35 K | 0.00952
in n-butanol, 327.35 K | 0.0115
in n-butanol, 333.95 K | 0.0143
in n-propanol, 293.15 K | 0.0387
in n-propanol, 299.35 K | 0.0476
in n-propanol, 303.05 K | 0.0523
in n-propanol, 308.35 K | 0.0599
in n-propanol, 313.15 K | 0.0677
in n-propanol, 317.05 K | 0.0744
in n-propanol, 320.75 K | 0.0814
in n-propanol, 328.35 K | 0.0976
in n-propanol, 333.35 K | 0.109
in toluene, 291.95 K | 0.00318
in toluene, 297.95 K | 0.00526
in toluene, 302.95 K | 0.00796
in toluene, 307.65 K | 0.0121
in toluene, 312.55 K | 0.018
in toluene, 317.45 K | 0.0258
in toluene, 322.15 K | 0.0389
in toluene, 327.35 K | 0.0615
in toluene, 332.05 K | 0.0848

Reference: BigSolDB 2.1
